Converted amounts (≈) assume the structure as drawn. Counter-ions that a name gives are not always drawn. Like-named read-outs stand apart in the source and are kept apart here.
What was measured:
Proteus vulgaris 9920 = experiment: In vitro tube dilution test (MIC), Proteus vulgaris 9920; format: cell-based; conditions: 18-20 hours at 37° C.
Description: (§1) Nalidixic acid, the parent acid, and its 1,2-ethanediamine (1:1) salt were tested in vitro against ten screening organisms and they were also tested against the standard E. coli (Vogel) systemic infection in mice, the latter in vivo study being carried out using three different routes of administration: oral, subcutaneous and intravenous. The materials and methods used in the comparative antibacterial tests are given in the following paragraphs.
(§2) The parent nalidixic acid was solublized by adding 1.0 ml. of 1 N NaOH to the crystalline acid and water was added to a concentration of 1000 mcg./ml. for the in vitro study or saline to a concentration of 2.5 or 5.0 mg./ml. for the in vivo study. A stock solution of nalidixic acid 1,2-ethanediamine (1:1) salt was prepared from the 1:2 salt according to Example 5 above (refer to Solution 5B); in saline this solution has a concentration equivalent of the nalidixic acid of 47.6 mg./ml. for in vivo studies. A concentration equivalent of the acid of 1000 mcg./ml. for the in vitro studies was obtained by dilution of the stock solution. […]
(§3) The compounds were tested for antimicrobial activity by a single-row tube dilution method. […] Minimal inhibitory concentrations (lowest drug concentrations showing no visible growth, designated MIC) were read after eighteen-twenty hours incubation at 37° C. The molds were read after five days incubation at 25° C.

Proteus mirabilis MGH-1 = experiment: In vitro tube dilution test (MIC), Proteus mirabilis MGH-1; format: cell-based
Description: as §1, §2, §3

ten screening organisms = experiment: In vitro antibacterial tests against ten screening organisms (overall); format: cell-based; conditions: in words
Description: as §1, §2, §3

[1] = tested on: Pseudomonas aeruginosa MGH-2; experiment: In vitro tube dilution test (MIC), Pseudomonas aeruginosa MGH-2; format: cell-based; conditions: 18-20 hours at 37° C.
Description: as §1, §2, §3

[2] = tested on: Streptococcus pyogenes C203; experiment: In vitro tube dilution test (MIC), Streptococcus pyogenes C203; format: cell-based; conditions: 18-20 hours at 37° C.
Description: as §1, §2, §3

Candida albicans 10231 = experiment: In vitro tube dilution test (MIC), Candida albicans 10231; format: cell-based
Description: as §1, §2, §3

[3] = tested on: Klebsiella pneumoniae 39645; experiment: In vitro tube dilution test (MIC), Klebsiella pneumoniae 39645; format: cell-based; conditions: 18-20 hours at 37° C.
Description: as §1, §2, §3

[4] = tested on: Staphylococcus aureus (Smith); experiment: In vitro tube dilution test (MIC), Staphylococcus aureus (Smith); format: cell-based; conditions: 18-20 hours at 37° C.
Description: as §1, §2, §3

Escherichia coli (Vogel) [5] = experiment: Mouse protection test, systemic Escherichia coli (Vogel) infection in mice; format: in vivo, Swiss Webster, female; conditions: for ED50 (the dose protecting 50% of the mice) / ED50: dosed 30 minutes after infection, 7 days; for ED50 (the dose protecting 50% of the mice): 10080 min; for ED50: Escherichia coli, 168 h, read-out: ED50 (the dose protecting 50% of the mice)
Description: as §1
The parent nalidixic acid was solublized by adding 1.0 ml. of 1 N NaOH to the crystalline acid and water was added to a concentration of 1000 mcg./ml. for the in vitro study or saline to a concentration of 2.5 or 5.0 mg./ml. for the in vivo study. A stock solution of nalidixic acid 1,2-ethanediamine (1:1) salt was prepared from the 1:2 salt according to Example 5 above (refer to Solution 5B); in saline this solution has a concentration equivalent of the nalidixic acid of 47.6 mg./ml. for in vivo studies. A concentration equivalent of the acid of 1000 mcg./ml. for the in vitro studies was obtained by dilution of the stock solution.
Culture for In Vivo Study Escherichia coii (Vogel)
Mice White, Swiss Webster, female, […].
The E. coli culture was grown in Brain Heart Infusion broth at 37° C. for sixteen hours after which 0.1 ml. was removed and inoculated into 10 ml. of Brain Heart Infusion broth and incubated for five hours. […] All mice to be infected were inoculated intraperitoneally with 0.5 ml. of the inoculum.
After inoculation of the organism, the mice were divided into groups of ten. Medication was given to one group of mice at each dose level of each of the […] drugs by each of the three routes of administration. Two groups (twenty mice) were used as infection controls. The drugs were administered thirty minutes after the mice were infected. The dose of drug for i.v. injection was contained in 0.2 ml. Those for oral or subcutaneous administration were contained in 0.5 ml. The mice were examined and deaths were recorded for seven days after inoculation. The ED50 's (the dose protecting 50% of the mice) were calculated using a modified Reed and Muench method.

Escherichia coli (Vogel) [6] = experiment: In vitro tube dilution test (MIC), Escherichia coli (Vogel); format: cell-based; conditions: 18-20 hours at 37° C., read-out: Minimal Inhibitory Concentration
Description: as §1, §2, §3

[7] = tested on: Trichophyton mentagrophytes 9129; experiment: In vitro tube dilution test (MIC), Trichophyton mentagrophytes 9129; format: cell-based; conditions: 120 h, molds read after five days at 25° C., read-out: Minimal Inhibitory Concentration
Description: as §1, §2, §3

Aspergillus niger 16404 = experiment: In vitro tube dilution test (MIC), Aspergillus niger 16404; format: cell-based; conditions: 120 h, molds read after five days at 25° C., read-out: Minimal Inhibitory Concentration
Description: as §1, §2, §3

[8] = read-out: Minimal Inhibitory Concentration

CCn1cc(C(=O)O)c(=O)c2ccc(C)nc21 [1,2-ED Salt, 1,2-ethanediamine (1:1) salt of nalidixic acid]
Minimal Inhibitory Concentration (Proteus vulgaris 9920): 1.0 µg/mL | Minimal Inhibitory Concentration (Proteus mirabilis MGH-1; 18-20 hours at 37° C.): 15.6 µg/mL | antibacterial activity in standard in vitro tests vs. parent nalidixic acid (ten screening organisms): as active antibacterially as the corresponding parent nalidixic acid | in vitro MIC's compared with MIC's of nalidixic acid (ten screening organisms; nine of the ten microorganisms): identical to the MIC's of nalidixic acid against nine of the ten microorganisms examined | Minimal Inhibitory Concentration ([1]; Pseudomonas aeruginosa MGH-2): 62.5 µg/mL | Minimal Inhibitory Concentration [2]: 250 µg/mL | Minimal Inhibitory Concentration (Candida albicans 10231): 500 µg/mL | Minimal Inhibitory Concentration [3]: 31.3 µg/mL | Minimal Inhibitory Concentration [4]: 31.3 µg/mL | ED50 (the dose protecting 50% of the mice) (Escherichia coli (Vogel) [5]; Oral): 18.9 mg./kg./dose | ED50 (the dose protecting 50% of the mice) (Escherichia coli (Vogel) [5]; Subcutaneous): 17.6 mg./kg./dose | ED50 's compared with nalidixic acid in the mouse protection test (Escherichia coli (Vogel) [5]; in words): no significant differences | antibacterial activity against in vivo bacterial infections in mice vs. parent nalidixic acid (Escherichia coli (Vogel) [5]; in words): as active antibacterially as the corresponding parent nalidixic acid

CCn1cc(C(=O)O)c(=O)c2ccc(C)nc21 [nalidixic acid, 1-ethyl-1,4-dihydro-7-methyl-4-oxo-1,8-naphthyridine-3-carboxylic acid]
MIC (Proteus vulgaris 9920; [8]): 1 µg/mL (≈ 4.31 µM) | MIC (Proteus mirabilis MGH-1; MGH1, 18-20 hours at 37° C., read-out: Minimal Inhibitory Concentration): 15.6 µg/mL (≈ 67.2 µM) | MIC ([1]; Pseudomonas aeruginosa, MGH2, Pseudomonas aeruginosa MGH-2, read-out: Minimal Inhibitory Concentration): 125 µg/mL (≈ 538 µM) | MIC [2, 8]: 250 µg/mL (≈ 1080 µM) | MIC (Escherichia coli (Vogel) [6]): 3.9 µg/mL (≈ 16.8 µM) | MIC [7]: 500 µg/mL (≈ 2150 µM) | MIC (Aspergillus niger 16404): 500 µg/mL (≈ 2150 µM) | MIC (Candida albicans 10231; [8]): 500 µg/mL (≈ 2150 µM) | MIC [3, 8]: 31.3 µg/mL (≈ 135 µM) | MIC [4, 8]: 31.3 µg/mL (≈ 135 µM) | ED50 (Escherichia coli (Vogel) [5]; iv, Intravenous): 17.6 mg/kg | ED50 (Escherichia coli (Vogel) [5]; po, Oral): 16.5 mg/kg | ED50 (Escherichia coli (Vogel) [5]; sc, Subcutaneous): 14 mg/kg

Source: US4207418A, “1,2-Ethanediamine salts of nalidixic acid” (Sterling Drug Inc., priority 1978, dated 1980)
